Data on three sequences can be found in patent US11732018B2, “Cancer antigen helper peptide” (priority 2009, dated 2023).

Ends that are not written are not given here.

The subject of data set [1] is RMAS cells pulsed with a WT1126 peptide (MHC class I). Kind of data set: WT1-specific immune response in spleen cells of tumor-implanted mice (cytotoxic activity, WT1 tetramer FACS). The data set is classed as in vivo, mouse. Here is the method: Next, mice were dissected on the 29th day after starting the above experiment, the spleen was excised, and a WT1-specific immune response was analyzed using spleen cells. Briefly, the spleen was excised when mice of the WT13 5 helper peptide (MHC class II)-immunized group and the control group were dissected, and spleen cells were prepared. The spleen cells were stimulated once with a WT11 2 6 peptide (MHC class I), and on the 6th day after the stimulation, cytotoxic activity of the spleen cells was measured using RMAS cells pulsed with a WT11 2 6 peptide (MHC class I) as a target cell. As a control, the cytotoxic activity of the spleen cells was measured using RMAS cells as a target cell. […] The WT1-specific cytotoxic T cells were not induced in one mouse. Also, it was clear that the induction of the WT1-specific cytotoxic T cells was lower as compared with the WT13 5 helper peptide (MHC class II)-immunized group (FIGS. 9 and 10).
Next, specific cytolysis was analyzed in mice of the above WT135 helper peptide (MHC class II)-immunized group and control group. […] Also, the above-prepared spleen cells and a fluorescence-labeled WT1 tetramer (H-2 Db WT1 Tetramer-[…]-PE) were incubated at 4° C. for 20 minutes, washed, then stained with fluorescence-labeled CD3 and CD8 antibodies, again washed, and analyzed by FACS. […]

In data set [2] the test system is spleen cells of immunized mice. Kind of data set: WT1 peptide-specific cell lines, cell proliferation ability (3H incorporation). The data set is classed as cell-based, mouse. The following applies: for proliferation reaction with MHC class I antibody or MHC class II antibody added (3H incorporation): 4th stimulation with peptide-pulsed stimulator, antibody added to the culture solution, FIG. 2A-2C; for proliferation reaction in response to stimulator pulsed with the peptide (3H incorporation): spleen cells of mice immunized with the same peptide, 4th stimulation with irradiated peptide-pulsed spleen cells of non-immunized mice, FIG. 1A-1C. Here is the method: First, the above WT1 peptides were emulsified with a Freund's incomplete adjuvant (Montanide ISA 51), and mice were intradermally inoculated with each WT1 peptide in an amount corresponding to 100 μg/mouse. The immunization was carried out 3 times at intervals of one week, the spleen was removed after 1 week of the final immunization, and spleen cells were prepared. The spleen cells were stimulated 3 times at intervals of 10 days using spleen cells of non-immunized mice, which were pulsed with the same WT1 peptide as that used for immunization of each mouse and irradiated, as a stimulator. Then, the 4th stimulation was carried out using spleen cells of non-immunized mice, which were pulsed with each peptide (WT13 5, WT18 6 or WT12 9 4 peptide) as shown in Table 7 and irradiated, as a stimulator, and proliferation reaction in response to each stimulator was measured by a ^3H incorporation experiment. An OVA (ovalbumin) peptide irrelevant to WT1 peptides was used as a control peptide. As a result, mouse spleen cells immunized with a WT13 5 peptide, a WT18 6 peptide or a WT12 9 4 peptide each responded to the stimulator pulsed with a WT13 5 peptide, a WT18 6 peptide or a WT12 9 4 peptide, and proliferated (FIG. 1A to 1C).
As described above, spleen cells were stimulated in vitro 3 times at intervals of 10 days using spleen cells of non-immunized mice, which were pulsed with each WT1 peptide and irradiated. When the 4th stimulation was then carried out using spleen cells of non-immunized mice, which were pulsed with each peptide described above and irradiated, as a stimulator, and proliferation reaction was measured, an MHC class I antibody (D^b antibody) or an MHC class II antibody (Ab antibody) was added to the culture solution and ^3H incorporation was measured.

The subject of another data set is C1498 cells. Put plainly: Proliferation reaction of WT1 peptide-specific cell lines to C1498 stimulator cells (3H incorporation). Conditions: irradiated C1498 stimulators; FIG. 3. The data set is classed as cell-based, mouse. Here is the method: As described above, spleen cells were stimulated in vitro 3 times at intervals of 10 days using spleen cells of non-immunized mice, which were pulsed with each WT1 peptide and irradiated. Then, the proliferation reaction was measured by ^3H incorporation using irradiated C1498 cells not expressing any WT1 protein, C1498 cells pulsed with each of the above WT1 peptides, or C1498 cells expressing a WT1 protein by introduction of a WT1 gene, as a stimulator.

As for WAPVLDFAPPGASAYGSL [WT135], in data set [1] (spleen cells of tumor-implanted mice, p<0.05, FIG. 11), the “WT1-specific cytotoxic T cells (specific cytolysis; CD3-, CD8- and WT1 tetramer-positive cells) versus control group” value is “significantly high”. In data set [1] (spleen excised on 29th day, stimulated once with WT1126 peptide, measured on 6th day, FIG. 9), the “induction of WT1-specific cytotoxic T cells (cytotoxic activity of spleen cells)” value is recorded as “induced in all 4 mice”.

In the case of “FRGIQDVRRVSGVAPTLVR (listed as Mus musculus) [WT1294]”, in data set [2], the “proliferation reaction with MHC class I antibody or MHC class II antibody added (3H incorporation)” value is “suppressed by the addition of an MHC class II antibody” and the “proliferation reaction in response to stimulator pulsed with the peptide (3H incorporation)” value was “proliferated”. Also, in the data set with C1498 cells, the “proliferation reaction in response to C1498 cells pulsed with peptide or expressing a WT1 protein (3H incorporation)” value was “produced by an intracellular process of an endogenous WT1 protein and displayed on an MHC class II molecule”.

In the case of “EQCLSAFTLHFSGQFTG (listed as Mus musculus) [WT186]”, in data set [2], the “proliferation reaction with MHC class I antibody or MHC class II antibody added (3H incorporation)” value was “suppressed by the addition of an MHC class II antibody” and the “proliferation reaction in response to stimulator pulsed with the peptide (3H incorporation)” value is “proliferated”. Also, the “proliferation reaction in response to C1498 cells pulsed with peptide or expressing a WT1 protein (3H incorporation)” value with C1498 cells is “produced by an intracellular process of an endogenous WT1 protein and displayed on an MHC class II molecule”.
